Source: patent US6221864A, “Prophylactic or therapeutic agent for diseases attributable to infection with helicobacters” (priority 1997, dated 2001)
≈ marks a conversion by molar mass, not a printed value.

Key:
[1] = tested on: H. pylori ATCC 43504 Type strain; test: Bacterial eradication in H. pylori-infected Mongolian gerbils, alone or combined with famotidine, twice a day for 3 days; type: in vivo, Mongolian gerbil; conditions: bid
Procedure: To a male 7-week-old Mongolian gerbil after fasting for about 20 hours, was inoculated orally a culture broth of H. pylori ATCC 43504 Type strain upon 24 hours of culture. After administration of the culture broth, the Mongolian gerbil was fasted and deprived of water for about 4 hours, after which a normal solid feed and drinking water were given to Mongolian gerbils infected with H. pylori. Starting from 6 weeks after infection, the compound of the present invention and famotidine which is a histamine H2 antagonist were administered alone or in combination twice a day for 3 days. The compound of the present invention was administered orally and famotidine was subcutaneously administered immediately before administration of the compound of the present invention. After completion of the drug administration, Mongolian gerbils were sacrificed at day 3. The stomach was excised and incised along greater curvature and its content was removed. The stomach was homogenized in 10 ml of phosphate buffer--physiological saline. […] The medium was incubated under CO2 and the colonies of H. pylori were counted. A case where colonies were not detected was evaluated as the case of bacterial eradication. As a control, phosphate buffer--physiological saline was used.

[2] = tested on: H. pylori ATCC 43504 Type strain; test: Bacterial eradication in H. pylori-infected Mongolian gerbils, drug orally twice a day for 7 days; type: in vivo, Mongolian gerbil; conditions: bid, oral
Procedure: To a male 7-week-old Mongolian gerbil after fasting for about 20 hours, was inoculated orally a culture broth of H. pylori ATCC 43504 Type strain upon 24 hours of culture. After administration of the culture broth, the Mongolian gerbil was fasted and deprived of water for about 4 hours, after which a normal solid feed and drinking water were given to Mongolian gerbils infected with H. pylori. Starting from 6 weeks after infection, the drug was orally administered twice a day for 7 days. After completion of the drug administration, Mongolian gerbils were sacrificed at day 3. The stomach was excised and incised along greater curvature, and its content was removed. The stomach was homogenized in 10 ml of phosphate buffer--physiological saline in a homogenizer. The homogenate was appropriately diluted with the same buffer and 0.1 ml of sample was plated onto H. pylori selective medium. The medium was incubated under CO2 and the colonies of H. pylori were counted. A case where colonies were not detected was evaluated as the case of bacterial eradication.

H. pylori = test: MIC given in Table 1 beside eradication in H. pylori-infected Mongolian gerbils; type: cell-based; conditions: Helicobacter pylori
Procedure: Clinically isolated strains (18 strains) were cultured using 5% horse serum under microaerophilic conditions at 37° C. for 72 hours and diluted with Brucella broth to give a bacterial solution at about 10^6 cells/ml. The diluted bacterial solution was inoculated with a microplanter on an agar plate containing 2-fold dilution concentration series of test compound and cultured under 8% CO2 at 37° C. for 3 to 4 days. Thereafter, the minimum growth inhibitory concentration (MIC) was measured. MIC50 (minimum concentration to inhibit growth in 50% of the test strains) and MIC90 (minimum concentration to inhibit growth in 90% of the test strains) were calculated from the obtained values. To a male 7-week-old Mongolian gerbil after fasting for about 20 hours, was inoculated orally a culture broth of H. pylori ATCC 43504 Type strain upon 24 hours of culture. After administration of the culture broth, the Mongolian gerbil was fasted and deprived of water for about 4 hours, after which a normal solid feed and drinking water were given to Mongolian gerbils infected with H. pylori. Starting from 6 weeks after infection, the drug was orally administered twice a day for 7 days. […] The medium was incubated under CO2 and the colonies of H. pylori were counted. A case where colonies were not detected was evaluated as the case of bacterial eradication.

[3] = tested on: H. pylori clinically isolated strains (18 strains); test: In vitro antibacterial activity against H. pylori clinically isolated strains (agar dilution MIC); type: cell-based; conditions: Helicobacter pylori, 18 clinically isolated strains, agar plate, 8% CO2, 37° C., 3 to 4 days
Procedure: Clinically isolated strains (18 strains) were cultured using 5% horse serum under microaerophilic conditions at 37° C. for 72 hours and diluted with Brucella broth to give a bacterial solution at about 10^6 cells/ml. The diluted bacterial solution was inoculated with a microplanter on an agar plate containing 2-fold dilution concentration series of test compound and cultured under 8% CO2 at 37° C. for 3 to 4 days. Thereafter, the minimum growth inhibitory concentration (MIC) was measured. MIC50 (minimum concentration to inhibit growth in 50% of the test strains) and MIC90 (minimum concentration to inhibit growth in 90% of the test strains) were calculated from the obtained values.

MIC (H. pylori) [µg/mL] | MIC50 ([3]; read-out: MIC50 (minimum concentration to inhibit growth in 50% of the test strains)) [µg/mL] | MIC90 ([3]; read-out: MIC90 (minimum concentration to inhibit growth in 90% of the test strains)) [µg/mL] | Structure (SMILES) | Eradication rate ([1]; 0.3 mg/kg, oral) [%] | Eradication rate ([1]; 1.0 mg/kg, oral) [%] | Eradication rate ([1]; 3.0 mg/kg, oral) [%] | visual and histopathological repair of inflammatory state [1] | bacterial eradication effect when concurrently administered with famotidine (in words) ([1]; with famotidine subcutaneous) | bacterial eradication effect by single administration (in words) ([1]; without famotidine) | Eradication rate ([2]; 0.3 mg/kg) [%] | Eradication rate ([2]; 1.0 mg/kg) [%] | Eradication rate ([2]; 3.0 mg/kg) [%] | bacterial eradication of H. pylori (in words) [2] | visual and histopathological repair of inflammatory state [2] | Eradication rate ([2]; 10.0 mg/kg) [%] | Eradication rate ([1]; 100 mg/kg, subcutaneous) [%]
0.025 (≈ 0.0596 µM) | 0.025 (≈ 0.0596 µM) | 0.05 (≈ 0.119 µM) | COc1c(N2CCO[C@@H](CN(C)C)C2)c(F)cc2c(=O)c(C(=O)O)cn(C3CC3)c12 [Y-34867, (S)-1-cyclopropyl-1,4-dihydro-7-[2-(N,N-dimethylaminomethyl)morpholino]-6-fluoro-8-methoxy-4-oxoquinoline-3-carboxylic acid] | 0 | 60 | 100 | promoted | the effect is enforced | superior bacterial eradication effect | 0 | 80 | 100 | evident bacterial eradication of H. pylori | promoted |  | 
0.025 (≈ 0.0684 µM) |  |  | CC1(C)S[C@@H]2[C@H](NC(=O)[C@H](N)c3ccc(O)cc3)C(=O)N2[C@H]1C(=O)O [amoxicillin, reference compound] |  |  |  |  |  |  |  |  | 0 |  |  | 100 | 
 |  |  | NC(N)=Nc1nc(CSCCC(N)=NS(N)(=O)=O)cs1 [famotidine, reference compound] |  |  |  |  |  |  |  |  |  |  |  |  | 0
